Earlier results, collected in US20080314115A1, “Compliance Apparatus” (Zenics Limited, priority 2005, published 2008).

Details: after disulfiram dose

SMILES: S=C=S [carbon disulphide]
- breath elimination half-life: 13.3 h
